According to publication PMC10539439 (Pharmacological Reports, 2023):
“And” between values parts separate entries of the source, which are not always exact repeats. Equal values may be shown once.

Columns and labels:
[1] = Plasma glucose, triglyceride and total cholesterol of obese rats; format: in vivo, rat; conditions: for plasma glucose concentration / plasma total cholesterol concentration / plasma triglyceride concentration: high-fat diet, single rats 1-6
Experimental: On the 26th day of the experiment, 20 min after ip administration of heparin (5000 IU/rat) and thiopental (70 mg/kg b.w.), plasma was collected from the left carotid artery and then centrifuged at 600 × g (15 min, 4 °C) to obtain the plasma.
To determine the glucose, triglyceride, or cholesterol level in plasma, standard enzyme and spectrophotometric tests (Biomaxima S.A. Lublin, Poland) were used. The substrate was decomposed with enzymes appropriate for the relevant product, which was converted to a colored compound. The colouration was proportional to the concentration. The absorbance was measured at a wavelength of 500 nm.

α2B-adrenoceptor = molecular target: T1, α2B-adrenoceptor (Homo sapiens, UniProt P18089); assay: Intrinsic activity, AequoScreen aequorin calcium mobilization; format: cell-based
T1 sequence (P18089 1-450): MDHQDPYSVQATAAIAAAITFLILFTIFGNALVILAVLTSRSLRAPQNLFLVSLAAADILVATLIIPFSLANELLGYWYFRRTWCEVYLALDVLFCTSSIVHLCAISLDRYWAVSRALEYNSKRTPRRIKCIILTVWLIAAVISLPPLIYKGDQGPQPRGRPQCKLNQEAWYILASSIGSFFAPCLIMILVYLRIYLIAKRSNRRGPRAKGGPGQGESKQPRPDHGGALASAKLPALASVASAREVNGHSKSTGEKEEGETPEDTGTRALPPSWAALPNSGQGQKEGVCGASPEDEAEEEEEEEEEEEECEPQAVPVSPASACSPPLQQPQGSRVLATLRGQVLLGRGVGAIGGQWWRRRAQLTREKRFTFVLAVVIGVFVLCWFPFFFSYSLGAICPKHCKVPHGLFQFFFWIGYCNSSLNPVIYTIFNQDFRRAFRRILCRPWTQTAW
Experimental: The intrinsic activity at α2B-adrenoceptor was evaluated by luminescence detection of calcium mobilization using the recombinant expressed jellyfish photoprotein, aequorin.
Measurements were performed with the α2B-adrenergic AequoScreen cell line (PekinElmer cat. no. ES-031-AF). Cell density, in 96-well format measurements, was 5000 cells per well. […] Compound concentration series (50 μL/well) were diluted in 0.1% BSA (Intergen, cat. no. 3440–75) containing assay buffer (D-MEM/F-12, Invitrogen cat. no. 11039) and prepared in white ½ Area Plate—96-well microplates (PerkinElmer, cat. no. 6005560). The cell suspension was dispersed on the ligands using POLARstar optima reader injectors (BMG Labtech, Germany).
The concentration and dilution series having four replicates were prepared as instructed in the AequoScreen Starter Kit Manual. Cells were injected into wells with standard agonist or tested compounds using the POLARstar optima reader (BMG Labtech, Germany), and emitted light was recorded for 20 s. For the antagonist assay, cells were injected (50 μL) into the assay plate with antagonists (50 μL).

[2] = Spontaneous activity in the home cage (RFID, TraffiCage); format: in vivo, rat; conditions: for activity: hight-fat diet, 5mg/kg, after first administration, 5 mg/kg
Experimental: Rat spontaneous activity was monitored for 24 h on the 1st and 24th (after multiple administrations of tested compound or vehicle) day of treatment with a radio-frequency identification system (RFID system)—TraffiCage (TSE-Systems, Germany)—transponder-based activity monitoring under group housing. The animals had subcutaneously implanted transponder identification with RFID code, which allowed the presence and time spent in different areas of the home cage to be recorded. The data were collected with a dedicated platform, placed under the home cage, containing five RFID antennas (six cage areas) reading telemetrically the presence of RFID chips and stored for analysis with a dedicated computer program. The animals during the monitoring of spontaneous activity were in home cages and always had free access to food and water.

[3] = Body weight of non-obese rats fed a standard diet; format: in vivo, rat; conditions: for body weight of rat in g in particular day: standard diet, 5 mg/kg
Experimental: Male Wistar rats (190–220 g) were housed in pairs. The control group (standard diet + vehicle) received vehicle (water, ip), while the test group (standard diet + 4-OH-Guanabenz) was injected (ip) with 4-OH-Guanabenz at a dose of 5 mg/kg b.w. dissolved in water. Body weights were measured daily immediately prior to drug administration.

Cl.N=C(N)NN=Cc1c(Cl)cc(O)cc1Cl [4-OH-Guanabenz, 2-[(2,6-Dichloro-4-hydroxyphenyl)methylene]hydrazinecarboximidamide Hydrochloride]
effect on plasma total cholesterol (in words) ([1]; high-fat diet rats, 5 mg/kg b.w.): highest plasma level of total cholesterol | effect on plasma triglyceride level (in words) ([1]; high-fat diet rats, 5 mg/kg b.w., vs obese control): significantly decreased plasma triglyceride levels | plasma glucose concentration ([1]; 2mg/kg): 4.77 mmol/L and 5.43 mmol/L and 6.06 mmol/L and 5.37 mmol/L and 5.51 mmol/L | plasma total cholesterol concentration ([1]; 2mg/kg): 0.86 mmol/L and 0.71 mmol/L and 0.87 mmol/L and 0.75 mmol/L and 0.78 mmol/L and 0.93 mmol/L | plasma triglyceride concentration ([1]; 2mg/kg): 0.17 mmol/L and 0.12 mmol/L and 0.21 mmol/L and 0.13 mmol/L and 0.14 mmol/L | plasma glucose concentration ([1]; 5mg/kg): 4.45 mmol/L and 5.37 mmol/L and 4.63 mmol/L and 5.39 mmol/L and 3.28 mmol/L and 4.68 mmol/L | plasma total cholesterol concentration ([1]; 5mg/kg): 0.93 mmol/L and 0.87 mmol/L and 0.8 mmol/L and 1.08 mmol/L and 0.88 mmol/L and 0.84 mmol/L | plasma triglyceride concentration ([1]; 5mg/kg): 0.12 mmol/L and 0.2 mmol/L and 0.1 mmol/L and 0.13 mmol/L and 0.18 mmol/L | effect on blood glucose level (in words) ([1]; obese rats, both doses (2 or 5 mg/kg b.w.), vs obese animals treated with water): significantly lower blood glucose levels | EC50 (α2B-adrenoceptor): 330 nM | Intrinsic activity at α2B-adrenoceptor (in words) (α2B-adrenoceptor): antagonist activity | activity ([2]; hour 2, individual rats): 241 counts and 466 counts and 407 counts and 76 counts and 54 counts | activity ([2]; hour 3, individual rats): 175 counts and 744 counts and 1081 counts and 269 counts and 412 counts | activity ([2]; hour 4, individual rats): 468 counts and 421 counts and 262 counts and 105 counts and 179 counts | activity ([2]; hour 5, individual rats): 721 counts and 62 counts and 232 counts and 2 counts and 78 counts | activity ([2]; hour 6, individual rats): 248 counts and 6* counts and 445 counts and 569 counts and 80 counts | activity ([2]; hour 7, individual rats): 1058 counts and 287 counts and 302 counts and 211 counts and 276 counts | activity ([2]; hour 8, individual rats): 513 counts and 751 counts and 432 counts (2×) and 306 counts | activity ([2]; hour 9, individual rats): 853 counts and 240 counts and 521 counts and 547 counts and 173 counts | activity ([2]; hour 10, individual rats): 276 counts and 938 counts and 536 counts and 556 counts and 142 counts | activity ([2]; hour 11, individual rats): 504 counts and 558 counts and 708 counts and 326 counts and 403 counts | activity ([2]; hour 12, individual rats): 347 counts and 440 counts and 410 counts and 404 counts and 692 counts | activity ([2]; hour 13, individual rats): 674 counts and 446 counts and 516 counts and 428 counts and 684 counts | activity ([2]; hour 14, individual rats): 437 counts and 1077* counts and 632 counts and 394 counts and 897 counts | activity ([2]; hour 15, individual rats): 692 counts and 273 counts and 929 counts and 462 counts and 743 counts | activity ([2]; hour 16, individual rats): 387 counts and 825 counts and 409 counts and 821 counts and 664 counts | activity ([2]; hour 17, individual rats): 618 counts and 1081 counts and 250 counts and 383 counts and 813 counts | activity ([2]; hour 18, individual rats): 339 counts and 628 counts and 260 counts and 133 counts and 576 counts | activity ([2]; hour 19, individual rats): 608 counts and 953 counts and 971 counts and 592 counts and 271 counts | activity ([2]; hour 20, individual rats): 298 counts and 398 counts and 614 counts and 684 counts and 663 counts | activity ([2]; hour 21, individual rats): 215 counts and 344 counts and 275 counts and 266 counts and 475 counts | effect on spontaneous activity (in words) ([2]; obese rats, after the first and 24th administration, 5 mg/kg b.w.): no effect | effect on body weight (in words) ([3]; rats fed standard diet, 5 mg/kg b.w. ip): No significant effects on body weight | body weight of rat in g in particular day ([3]; day 1, individual rats): 206 g and 214 g and 229 g and 239 g | body weight of rat in g in particular day ([3]; day 2, individual rats): 206 g and 217 g and 231 g and 242 g | body weight of rat in g in particular day ([3]; day 3, individual rats): 203 g and 214 g and 223 g and 240 g | body weight of rat in g in particular day ([3]; day 4, individual rats): 207 g and 216 g and 230 g and 238 g | body weight of rat in g in particular day ([3]; day 5, individual rats): 210 g and 220 g and 230 g and 241 g | body weight of rat in g in particular day ([3]; day 6, individual rats): 212 g and 222 g and 230 g and 241 g | body weight of rat in g in particular day ([3]; day 7, individual rats): 212 g and 218 g and 231 g and 244 g | body weight of rat in g in particular day ([3]; day 8, individual rats): 214 g and 212 g and 227 g and 240 g | body weight of rat in g in particular day ([3]; day 9, individual rats): 210 g (2×) and 222 g and 237 g | body weight of rat in g in particular day ([3]; day 10, individual rats): 212 g and 215 g and 225 g and 240 g | body weight of rat in g in particular day ([3]; day 11, individual rats): 213 g and 214 g and 222 g and 239 g | body weight of rat in g in particular day ([3]; day 12, individual rats): 211 g and 213 g and 224 g and 241 g | body weight of rat in g in particular day ([3]; day 13, individual rats): 214 g and 212 g and 225 g and 242 g | body weight of rat in g in particular day ([3]; day 14, individual rats): 215 g and 211 g and 225 g and 239 g | body weight of rat in g in particular day ([3]; day 15, individual rats): 217 g and 211 g and 224 g and 242 g | body weight of rat in g in particular day ([3]; day 16, individual rats): 217 g and 213 g and 225 g and 242 g | body weight of rat in g in particular day ([3]; day 17, individual rats): 218 g and 212 g and 226 g and 243 g | body weight of rat in g in particular day ([3]; day 18, individual rats): 218 g and 214 g and 227 g and 243 g | body weight of rat in g in particular day ([3]; day 19, individual rats): 219 g and 214 g and 227 g and 244 g | body weight of rat in g in particular day ([3]; day 20, individual rats): 220 g and 215 g and 228 g and 244 g | body weight of rat in g in particular day ([3]; day 21, individual rats): 220 g and 216 g and 228 g and 245 g | body weight of rat in g in particular day ([3]; day 22, individual rats): 221 g and 216 g and 229 g and 245 g | body weight of rat in g in particular day ([3]; day 23, individual rats): 221 g and 217 g and 229 g and 246 g | body weight of rat in g in particular day ([3]; day 24, individual rats): 220 g and 217 g and 230 g and 246 g | body weight of rat in g in particular day ([3]; day 25, individual rats): 221 g and 218 g and 230 g and 247 g
